Experimental data reported in patent US4358458A, “Tertiary imidazolyl alcohols and method for the treatment of generalized and local infections caused by fungi and yeasts” (Nordmark-Werke GmbH, priority 1976, dated 1982).

Columns and labels:
LD50 (mice) = settings: mouse, in vivo
Candida albicans [1] = assay: oral activity in Candida-infected mice (survival); type: in vivo; settings: 100 mg/kg orally twice a day for 7 days; for Number of Animals surviving on day 1 after infection / Number of Animals surviving on day 2 after infection / Number of Animals surviving on day 3 after infection / Number of Animals surviving on day 4 after infection / Number of Animals surviving on day 5 after infection / Number of Animals surviving on day 6 after infection / Number of Animals surviving on day 7 after infection: groups of 10 mice
Description: In order to determine oral activity, groups of 10 mice weighing approximately 20 g were pretreated for 2 days with intramuscular doses of 50 mg/kg of hydrocortisone in order to obtain firm rooting of the infection. The mice were then each infected intravenously with 500,000 Candida albicans germs and subsequently treated orally twice a day for 7 days with 100 mg/kg of the substance to be tested. In addition to an infected, but untreated control group, another group was treated for comparison with the comparison substance MICONAZOL.

Candida albicans [2] = assay: series dilution test in vitro, Candida albicans; type: cell-based; settings: dilution b=1:100,000
Description: The antimicrobial activity of the compounds corresponding to general formula (I) in vitro was tested in a series dilution test with dilution ratios of from 1:10,000 to 1:200,000 against the germs Staphylococcus aureus, Trichophyton mentagrophytes and Candida albicans.
The results were evaluated by the following graduations of the growth inhibition level:
.phi.=complete inhibition
The following dilution ratios were selected as the dilution ratio V: […]

Row | SMILES | LD50 (LD50 (mice)) [mg/kg] | Number of Animals surviving on day 1 after infection (Candida albicans [1]) | Number of Animals surviving on day 2 after infection (Candida albicans [1]) | Number of Animals surviving on day 3 after infection (Candida albicans [1]) | Number of Animals surviving on day 4 after infection (Candida albicans [1]) | Number of Animals surviving on day 5 after infection (Candida albicans [1]) | Number of Animals surviving on day 6 after infection (Candida albicans [1]) | Number of Animals surviving on day 7 after infection (Candida albicans [1]) | growth inhibition level, Candida albicans (Candida albicans [2]) | animals still alive on the last day of the treatment (Candida albicans [1]; last day of treatment) [%]
1 | OC(Cc1ccc(Cl)cc1)(Cn1ccnc1)c1ccc(Cl)cc1 (stereo not drawn) [Example 8, 1,2-bis-(4-chlorophenyl)-3-(imidazol-1-yl)-propan-2-ol nitrate] | 1000 | 10 | 10 | 10 | 10 | 10 | 10 | 10 |  | 
2 | OC(Cc1ccc(Cl)cc1Cl)(Cn1ccnc1)c1ccc(Cl)cc1Cl (stereo not drawn) [Example 9, 1,2-bis-(2,4-dichlorophenyl)-3-(imidazol-1-yl)-propan-2-ol-nitrate] | 1000 | 10 | 10 | 10 | 10 | 10 | 10 | 9 |  | 
3 | OC(Cc1ccccc1)(Cn1ccnc1)c1ccc(Cl)cc1 (stereo not drawn) [Example 15, 1-phenyl-2-(4-chlorophenyl)-3-(imidazol-1-yl)-propan-2-ol nitrate] |  | 10 | 10 | 10 | 10 | 10 | 10 | 9 |  | 
4 | OC(Cc1ccc(Cl)cc1)(Cn1ccnc1)c1ccccc1 (stereo not drawn) [Example 28, 1-(4-chlorophenyl)-2-phenyl-3-(imidazol-1-yl)-propan-2-ol nitrate] |  | 10 | 10 | 10 | 10 | 10 | 10 | 10 | + ++ | 
5 | Cl.OC(Cc1ccc(Cl)cc1)(Cn1ccnc1)c1ccc(Cl)cc1Cl (stereo not drawn) [Example 30, 1-(4-chlorophenyl)-2-(2,4-dichlorophenyl)-3-(imidazol-1-yl)-propan-2-ol hy drochloride] | 1000 | 10 | 10 | 10 | 10 | 10 | 10 | 10 |  | 
6 | OC(Cc1ccc(Cl)cc1Cl)(Cn1ccnc1)c1ccccc1 (stereo not drawn) [Example 34, 1-(2,4-dichlorophenyl)-2-phenyl-3-(imidazol-1-yl)-propan-2-ol nitrate] |  | 10 | 10 | 10 | 10 | 10 | 10 | 9 |  | 
7 | Clc1ccc(COC(Cn2ccnc2)c2ccc(Cl)cc2Cl)c(Cl)c1.O=[N+]([O-])O (stereo not drawn) [MICONAZOL, 1-[2,4-dichloro-β-(2,4-dichlorobenzyloxy)-phenethyl]imidazole nitrate, reference compound] |  | 10 | 10 | 8 | 8 | 6 | 4 | 2 |  | 20
